US10220040B2, “Compounds, compositions and methods useful for cholesterol mobilization” (Cerenis Therapeutics Holding SA, priority 2010, dated 2019)

Legend:
human P2Y13 receptor = human P2Y13 receptor (Homo sapiens (Human), UniProt Q9BPV8); assay: Ca++ flux agonist assay on P2Y13 receptor transfected 1321N1 cells; format: cell-based; conditions: Table 4, measured from data of Figure 2; comma is decimal sign
Method: Compounds were assayed for their agonist activity on P2Y13 GPCR transfected cells using a Ca++ flux assay (associated to fluorescent dye detection) with the Reference Compound as positive reference. Two cell lines, 1321N1-P2Y13 stably expressing human P2Y13 receptor, and 1321N1 parental cell line as control, were used in this assay. 1321N1 Parental and 1321N1 P2Y13 were seeded into T25 flasks at 3 million cells per flask, respectively. Cells were incubated at 37 degrees Celsius in 5% CO2 overnight. The day after, cells were transfected with Gqi5 protein using Fugene transfection reagent (Roche's Fugene Reagent).
After 24 hours of transfection, cells were collected from flasks and seeded in 384-well plates at 8000 cells per well. The assays were carried out 48 hours after Gqi5 transfection.
Methods: The Ca++ flux assay was conducted according to the manufacturer's protocol (Molecular Devices FLIPR Calcium 4 Assay kit (R8142). Briefly, cell culture media were aspirated from the wells and replaced with 25 μL of Hank's buffer or PBS buffer. 25 μL of Ca++ dye was added into each assay well. The plate was incubated for 1 hour at 37° C. in 5% CO2. After the incubation, the plate was transferred to FlexStation III (FlexStation III (Molecular Devices)). The compounds were automatically injected into each well.

C57Bl6 mice = assay: Dose response on bile physiology after single oral gavage in mice; format: in vivo
Method: FIG. 16A-J: Increase of bile secretion following activation of P2Y13r pathway in mice. C57Bl/6J mice (n=10) were fasted for 2 h and then intravenously injected with Cangrelor® or Compound IIa (10 nmoles/kg). Four hours later the gallbladders were removed and analyzed for: Bile acids content (FIG. 16A); Bile cholesterol content (FIG. 16B). C57Bl/6J mice (n=10) were fasted for 2 h followed by single oral dose of P2Y13r agonist Compound IIa at 3, 30 or 300 μg/kg. Six hours later bile acids contents (FIG. 16C); bile cholesterol content (FIG. 16D), and bile acid content of liver (FIG. 16E) were evaluated using HPLC and enzymatic kits for gallbladers. Plasma samples were collected at time 0 and after 6 h of treatment, then analyzed for: total cholesterol (▴), unesterified cholesterol (●), esterified cholesterol (▪) and HDL cholesterol (▾) determined using either enzymatic kits or Lipoprint® for HDL cholesterol (FIG. 16F). C57Bl/6J mice (n=5) were intravenously injected with [^3H]-cholesterol-labelled mouse HDL (FIG. 16G), [^3H]-cholesteryl oleate-labelled mouse HDL (FIG. 16H) or [^3H]-cholesterol-labelled mouse LDL (FIG. 16I), and with Cangrelor® or Compound IIa (10 nmoles/kg). Radioactivity present in the liver was determined 2 hours later for the HDL or 5 hours later for the LDL. Cholesterol content of feces from treated animals (100 μg/kg) was determined by Charge aerosol detection (FIG. 16J). *p<0.05, **p<0.01.
The dose response after oral gavage was determined for illustrative compounds of the invention. The chosen doses were 0.003, 0.03 and 0.3 mg/kg. The selected compounds of the invention were administrated by oral gavage and 6 hours later the mice are sacrificed and the bile content was analyzed (FIGS. 6-11).
Bile acids were diluted in PBS (1:5000) and the concentration was measured according to the manufacturer protocol with slight modifications. Concentrations of bile acids in the standard curve were varied from […] and the enzymatic reaction was performed for 20 minutes. 4 μl of 1:5000 bile dilution was used for concentration determination.
Bile phospholipids were measured according to the manufacturer protocol. Briefly, the standards were varied from 0 to 20 μg/ml and 4 μl of bile was measured in the assay. The reaction was performed for 5 minutes at 37° C.
Bile phospholipids were measured according to the manufacturer protocol. Briefly, the standards were varied from 0 to 60 μg/ml and 10 μl of bile (dilution 1:10) was measured in the assay. The reaction was performed for 5 minutes at 37° C.

mice = assay: Bile acids physiology after one week daily oral treatment; format: in vivo; conditions: oral gavage once daily for a week (0.03 mg/kg)
Method: FIG. 13A-B: Single-dose effect of Compound IIa on bile acids secretion after one week treatment. Mice were treated daily with Compound IIa (0.03 mg/kg) by oral gavage. On the day of sacrifice, the mice were fasted for 3 hours followed by an oral gavage (same concentration). 4 hours later the bile content was analyzed. FIG. 13A: data are expressed as the concentration of bile acids. FIG. 13B: data are expressed as the pool of bile acids per mouse weight (*p<0.05). Group of animals n=10.
In the previous experiments, illustrative compounds of the invention were administrated once and the impact on bile physiology was measured after 6 hours. Compound IIa was administrated by oral gavage once daily for a week to allow observation of the consequences on bile physiology of a longer treatment. On the day of sacrifice, the conditions were similar to the dose response experiments. The net impact of Compound IIa on the bile secretion was observed.

human P2Y13 receptor, sequence (Q9BPV8 whole entry): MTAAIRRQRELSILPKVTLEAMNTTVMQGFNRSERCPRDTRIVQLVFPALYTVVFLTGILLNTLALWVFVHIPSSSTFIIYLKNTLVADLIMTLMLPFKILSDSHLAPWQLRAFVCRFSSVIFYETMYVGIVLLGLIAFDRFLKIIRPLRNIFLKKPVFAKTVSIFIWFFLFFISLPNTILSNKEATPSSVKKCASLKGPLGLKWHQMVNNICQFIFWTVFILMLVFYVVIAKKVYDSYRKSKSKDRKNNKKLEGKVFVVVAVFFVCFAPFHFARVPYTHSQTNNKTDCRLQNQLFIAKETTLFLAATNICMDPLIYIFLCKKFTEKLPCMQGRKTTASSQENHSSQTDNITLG

Compound: CN(C)c1ncc(CN2CCC(c3cc(O)nc(N4CCOCC4)n3)CC2)cn1 [Compound IIa, 6-[1-(2-Dimethylaminopyrimidin-5-ylmethyl)-piperidin-4-yl]-2-morpholin-4-yl-pyrimidin-4-ol]
- EC50 (human P2Y13 receptor): 40.3 µM
- plasma cholesterol and HDL (C57Bl6 mice; after 4 h of treatment, exception: unesterified cholesterol): not significantly affected
- dose at which an effect on bile acids, bile cholesterol and bile phospholipids was shown (C57Bl6 mice; oral gavage 0.003, 0.03 and 0.3 mg/kg, bile analyzed 6 hours later): 3 µg/kg
- bile acid and cholesterol secretion in the bile (C57Bl6 mice; oral gavage, doses as low as 30 μg/kg): stimulation
- liver bile acid content (C57Bl6 mice; oral, 30 μg/kg): increase
- volume of the individual bile compared to vehicle treatment (mice): significant increase
